Reference: US20140315956A1, “SMALL MOLECULE INHIBITORS OF IL-6 AND USES THEREOF” (NATIONWIDE CHILDREN'S HOSPITAL, priority 2011, published 2014)

Columns and labels:
GP130 = target: T1, GP130 (Homo sapiens, UniProt P40189); test: Literature binding of madindoline A to GP130; conditions: compared with the docking free energy
T1 sequence (P40189 23-918): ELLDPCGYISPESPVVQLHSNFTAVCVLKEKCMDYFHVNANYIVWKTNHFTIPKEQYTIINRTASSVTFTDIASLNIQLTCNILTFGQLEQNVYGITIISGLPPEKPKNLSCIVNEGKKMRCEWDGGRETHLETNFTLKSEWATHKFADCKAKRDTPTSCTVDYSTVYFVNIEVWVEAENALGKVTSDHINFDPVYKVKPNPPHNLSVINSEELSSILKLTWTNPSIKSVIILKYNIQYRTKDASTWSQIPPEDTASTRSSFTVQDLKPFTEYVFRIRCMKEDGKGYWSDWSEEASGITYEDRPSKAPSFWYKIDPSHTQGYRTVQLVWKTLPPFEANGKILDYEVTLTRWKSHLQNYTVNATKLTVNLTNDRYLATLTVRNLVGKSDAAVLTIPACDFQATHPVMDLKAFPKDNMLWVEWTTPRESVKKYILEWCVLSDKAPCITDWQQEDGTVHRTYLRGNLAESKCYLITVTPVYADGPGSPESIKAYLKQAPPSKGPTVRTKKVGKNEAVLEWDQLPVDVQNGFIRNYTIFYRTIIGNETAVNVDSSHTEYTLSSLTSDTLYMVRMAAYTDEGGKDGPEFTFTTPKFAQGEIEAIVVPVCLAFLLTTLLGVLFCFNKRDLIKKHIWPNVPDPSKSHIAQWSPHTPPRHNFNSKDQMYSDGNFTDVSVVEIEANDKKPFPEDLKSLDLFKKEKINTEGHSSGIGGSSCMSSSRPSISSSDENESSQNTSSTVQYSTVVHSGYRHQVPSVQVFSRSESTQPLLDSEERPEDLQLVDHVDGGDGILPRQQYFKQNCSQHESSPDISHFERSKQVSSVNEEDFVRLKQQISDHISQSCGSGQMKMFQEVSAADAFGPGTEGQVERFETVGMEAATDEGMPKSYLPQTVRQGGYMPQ
Excerpt: Several synthetic approaches to the preparation of the natural product have been reported (ref. 22 and references therein), but due to the length and complexity of the syntheses cannot be applied economically in a pharmaceutical process. A structure-based approach to the synthesis of madindoline A analogues has not yet been reported.

[1] = test system: IL-6-independent MH60 cells; conditions: Omura and coworkers; cited from earlier work
[2] = test system: IL-6-dependent STAT3 tyrosine phosphorylation in HepG2 cells; conditions: Saleh and coworkers; cited from earlier work

CCCCC1=C(C)C(=O)[C@@](C)(CN2c3ccccc3[C@]3(O)CCO[C@H]23)C1=O [MDL-A, (+)-Madindoline A, reference compound]
experimental binding free energy (GP130): -5.0 kcal/mol
growth of IL-6-independent MH60 cells [1]: unaffected
IL-6-dependent STAT3 tyrosine phosphorylation [2]: inhibits IL-6-dependent STAT3 tyrosine phosphorylation
